Experiments:
Assay in all cases: relative viability (nuclei count vs DMSO), 5 days (fraction); higher = more cells survive
[1] = compound: C[C@@H](Oc1cc(-c2cnn(C3CCNCC3)c2)cnc1N)c1c(Cl)ccc(F)c1Cl [Crizotinib] + C[C@]1(O)C[C@@H](c2nc(-c3ccc4ccc(-c5ccccc5)nc4c3)c3c(N)nccn32)C1 [Linsitinib] (partner 1 µM)
Summary of the method: (§1)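 Relative viability is defined as nuclei in treated wells over nuclei in vehicle wells. Duplicate plates were run and medians reported. Lung cancer cell lines in 1536-well plates were dosed by pin tool one day after seeding, with one drug or with a fixed anchor-drug dose plus five library-drug doses (not always all listed) in √10 steps, and nuclei were counted after 5 days.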

[2] = compound: O=C(c1cc(Cc2n[nH]c(=O)c3ccccc23)ccc1F)N1CCN(C(=O)C2CC2)CC1 [Olaparib] + NC(=O)Nc1cc(-c2cccc(F)c2)sc1C(=O)N[C@H]1CCCNC1 [AZD7762] (partner 0.2 µM)
Summary of the method: as §1

[3] = compound: C[C@@H](Oc1cc(-c2cnn(C3CCNCC3)c2)cnc1N)c1c(Cl)ccc(F)c1Cl [Crizotinib] + Nc1ncn([C@H]2C[C@H](O)[C@@H](CO)O2)c(=O)n1 [Decitabine] (partner 2 µM)
Summary of the method: as §1

[4] = compound: C[C@@H](Oc1cc(-c2cnn(C3CCNCC3)c2)cnc1N)c1c(Cl)ccc(F)c1Cl [Crizotinib] + Nc1nc2[nH]cc(CCc3ccc(C(=O)N[C@@H](CCC(=O)O)C(=O)O)cc3)c2c(=O)[nH]1 [Pemetrexed] (partner 0.2 µM)
Summary of the method: as §1

[5] = compound: CC(C)C[C@H](NC(=O)[C@H](CCc1ccccc1)NC(=O)CN1CCOCC1)C(=O)N[C@@H](Cc1ccccc1)C(=O)N[C@@H](CC(C)C)C(=O)[C@@]1(C)CO1 [Carfilzomib] + Nc1nc2[nH]cc(CCc3ccc(C(=O)N[C@@H](CCC(=O)O)C(=O)O)cc3)c2c(=O)[nH]1 [Pemetrexed] (partner 0.2 µM)
Summary of the method: as §1

Cell Line: NCI-H1793
- relative viability ([1]; first compound 0.01 µM): 1.01
- relative viability ([1]; first compound 0.03162 µM): 0.922
- relative viability ([1]; first compound 0.1 µM): 0.837
- relative viability ([1]; first compound 1 µM): 0.87
- relative viability ([2]; first compound 0.08 µM): 0.747
- relative viability ([2]; first compound 0.253 µM): 0.438
- relative viability ([2]; first compound 2.53 µM): 0.488
- relative viability ([2]; first compound 8 µM): 0.283
- relative viability ([3]; first compound 0.03162 µM): 0.522
- relative viability ([3]; first compound 0.1 µM): 0.53
- relative viability ([3]; first compound 1 µM): 0.555
- relative viability ([4]; first compound 0.03162 µM): 1.04
- relative viability ([4]; first compound 0.1 µM): 0.902
- relative viability ([4]; first compound 1 µM): 1.2
- relative viability ([5]; first compound 0.001 µM): 0.58
- relative viability ([5]; first compound 0.003162 µM): 1.13
- relative viability ([5]; first compound 0.01 µM): 0.861
- relative viability ([5]; first compound 0.03162 µM): 0.7
- relative viability ([5]; first compound 0.1 µM): 0.336

Reference: the supplement of paper PMC10307832
